From patent US9301956B2, “Application of cinchona alkaloid derivatives as cytotoxic compounds” (ADAM MICKIEWICZ UNIVERSITY, priority 2014, dated 2016)
Converted amounts (≈) assume the structure as drawn. “And” between values parts separate entries of the source, which are not always exact repeats. Equal values may be shown once. Read-outs that look alike come from different tables or passages of the source.

Tests used:
Format in all cases: cell-based
MCF-7 (breast cancer) = assay: Sulphorhodamine B cytotoxicity test, MCF-7 line; conditions: for IC50: Homo sapiens, MCF7, 72 h incubation, SRB
Method: (§1) Cytotoxic activity tests were performed using the following cancer cell lines: MCF-7 (breast cancer), HeLa (cervical cancer) A549 (pulmonary cancer) and KB (nasopharynx cancer) obtained from ECACC (European Collection of Cell Cultures). Cytotoxicity tests were carried out using a standard procedure with sulphorhodamine B. They involved incubation of the cancer cell lines in the logarithmic growth phase for 72 hours with the compound tested and, subsequently, spectrophotometric determination of the degree of cell growth inhibition using adsorption of a dye (sulphorhodamine B) which binds cellular proteins. The determination was carried out according to a procedure reported in: Vichai, V., Kirtikara, K. Nature Protocols, 2006, 1, 1112. […] Solutions of the test compounds were prepared in DMSO in the following concentration range: 0.05; 0.1; 0.5; 1; 5; 10; 50; 100 μM. The cells of the lines tested were treated with the solutions of the test compounds in a laminar-flow chamber which ensured sterile working conditions according to the following procedure: the first three wells were used as a control: they contained 20 μL of DMSO only; successive solutions of the test compound were added to subsequent wells (20 μL), starting with the lowest concentration (three wells for each concentration level). Subsequently, the plates were placed in an incubator for 72 hours. After the end of incubation, the adhered cells were fixed by adding 500 μL of cold (4° C.) 50% trichloroacetic acid (TCA) and incubated at 4° C. for 1 hour. Subsequently, each well was rinsed with sterile water and dried. The operation was repeated five times. The fixed cells were stained for 30 minutes by adding 500 μL of 0.4% of a dye solution (sulphorhodamine B) dissolved in 1% acetic acid. […] Subsequently, the plates were dried in air for approx. 5 minutes. Any unbound dye was dissolved by adding 1500 μL of […] Tris-base buffer (trishydroxymethylaminomethane) to each well and shaken using an orbital shaker for 5 minutes. […] Depending on the type of the cell line, the following growth media were used: • the MCF-7 line was grown in Dulbecco's Modified Eagle's Medium (DME) from Sigma (cat. no. […] R8758).

KB (nasopharynx cancer) = assay: Sulphorhodamine B cytotoxicity test, KB line; conditions: for IC50: average of three determinations, read-out: Cytotoxic activity, IC50, KB (nasopharynx cancer)
Method: as §1

HeLa (cervical cancer) = assay: Sulphorhodamine B cytotoxicity test, HeLa line; conditions: for IC50: Homo sapiens, HeLa
Method: as §1

A549 (lung cancer) = assay: Sulphorhodamine B cytotoxicity test, A549 line; conditions: for IC50: Homo sapiens
Method: as §1

[1] = tested on: cancer cell lines of breast cancer, cervical cancer, lung cancer and nasopharynx cancer; assay: Sulphorhodamine B cytotoxicity test, cancer cell lines overall (line not specified)
Method: Cytotoxic activity tests were performed using the following cancer cell lines: MCF-7 (breast cancer), HeLa (cervical cancer) A549 (pulmonary cancer) and KB (nasopharynx cancer) obtained from ECACC (European Collection of Cell Cultures).
Cytotoxicity tests were carried out using a standard procedure with sulphorhodamine B. They involved incubation of the cancer cell lines in the logarithmic growth phase for 72 hours with the compound tested and, subsequently, spectrophotometric determination of the degree of cell growth inhibition using adsorption of a dye (sulphorhodamine B) which binds cellular proteins. The determination was carried out according to a procedure reported in: Vichai, V., Kirtikara, K. Nature Protocols, 2006, 1, 1112.
Cancerous cells of the cell line tested in the logarithmic growth phase were seeded onto 24-well plates in a quantity of 20,000 cells/2 mL of the growth medium per well and, subsequently, incubated in an incubator at 37° C., in the 5% CO2 atmosphere for 24 hours. […]
After the end of incubation, the adhered cells were fixed by adding 500 μL of cold (4° C.) 50% trichloroacetic acid (TCA) and incubated at 4° C. for 1 hour. […] Subsequently, 200 μL of solution from each well was transferred to each of two wells on a new 96-well plate and absorption of the solutions was determined spectrophotometrically at a wavelength of 490-530 nm using a plate reader. […]

[2] = average of three determinations, read-out: Cytotoxic activity, IC50, MCF-7 line (breast cancer)
[3] = 72 h incubation, SRB, average of three determinations, read-out: Cytotoxic activity, IC50, HeLa (cervical cancer)
[4] = A549, 72 h incubation, SRB, average of three determinations, read-out: Cytotoxic activity, IC50, A549 (lung cancer)

O=c1[nH]c(=O)n([C@H]2C[C@H](O)[C@@H](CO)O2)cc1F [5-fluoro-2′-deoxyuridine]
IC50 (MCF-7 (breast cancer); [2]): 2.81 µg/mL and 11.4 µM
IC50 (KB (nasopharynx cancer); 72 h incubation, SRB): 3.37 µg/mL and 13.7 µM
IC50 (HeLa (cervical cancer); [3]): 3.2 µg/mL and 13 µM
IC50 (A549 (lung cancer); [4]): 3.3 µg/mL and 13.4 µM

O=c1[nH]cc(F)c(=O)[nH]1 [5-fluorouracil]
IC50 (MCF-7 (breast cancer); [2]): 2.37 µg/mL and 18.2 µM
IC50 (KB (nasopharynx cancer); 72 h incubation, SRB): 2.86 µg/mL and 22 µM
IC50 (HeLa (cervical cancer); [3]): 2.73 µg/mL and 21 µM
IC50 (A549 (lung cancer); [4]): 2.78 µg/mL and 21.4 µM

C#CCO[C@@H](c1ccnc2ccccc12)[C@H]1C[C@@H]2CCN1C[C@@H]2C=C [PCN, 9-O-propargylcinchonine]
times as cytotoxic as 5FU (MCF-7 (breast cancer); MCF-7 line, relative to 5FU): more than two times
times as active as 5 FdU (MCF-7 (breast cancer); MCF-7 line, relative to 5 FdU): 1.3 times
Cytotoxic activity class, KB (nasopharynx cancer) (KB (nasopharynx cancer); 72 h incubation, SRB): (A) (IC50<4 μg/mL are generally assumed as active (abbreviated as A))
times as high activity compared to 5FU (KB (nasopharynx cancer); KB (nasopharynx cancer), relative to 5FU): 2.3 times
times as high activity compared to 5 FdU (KB (nasopharynx cancer); KB (nasopharynx cancer), relative to 5 FdU): 1.4 times
times as cytotoxic as 5FU (HeLa (cervical cancer); HeLa (cervical cancer), relative to 5FU): two times
times as cytotoxic as 5 FdU (HeLa (cervical cancer); HeLa (cervical cancer), relative to 5 FdU): 1.2 times
times as cytotoxic as 5FU (A549 (lung cancer); A549 (pulmonary cancer), relative to 5FU): more than 1.8 times
cytotoxicity compared with 5 FdU (A549 (lung cancer); A549 (pulmonary cancer), relative to 5 FdU): slightly more cytotoxic
in vitro cytotoxicity against cancer cell lines [1]: within the range of high activity

C=C[C@H]1C[N@@]2CC[C@H]1C[C@@H]2[C@@H](O)c1ccnc2ccccc12 [cinchonine]
IC50 (MCF-7 (breast cancer); read-out: Cytotoxic activity class, MCF-7 line (breast cancer)): 4 to 30 µg/mL (≈ 13.6 to 102 µM)
IC50 (HeLa (cervical cancer); 72 h, read-out: Cytotoxic activity class, HeLa (cervical cancer)): 4 to 30 µg/mL (≈ 13.6 to 102 µM)
IC50 (A549 (lung cancer); A549, 72 h, read-out: Cytotoxic activity class, A549 (lung cancer)): 4 to 30 µg/mL (≈ 13.6 to 102 µM)
